Results published in paper PMC11574021, “CEP192 localises mitotic Aurora-A activity by priming its interaction with TPX2” (The EMBO Journal, 2024).

Legend:
[1] = system: TCTP-pS46 in RPE1 p53-/- cells; experiment: Western blot densitometry, TCTP-pS46, RPE1 p53-/-; type: cell-based, Homo sapiens; details: mitotic RPE1 p53-/- lysates, inhibitor 30 min
Method: For measuring monopolar spindle diameter and counting centriolar foci by immunofluorescence, cells were treated with 10 µM STLC for 1 h and 4 h prior to fixation, respectively.
Drugs were resuspended in DMSO to the stock concentrations indicated in square brackets.
Cells were lysed on ice for 30 min in lysis buffer (50 mM tris pH 8.0, 300 mM NaCl, 0.2%(v/v) NP-40, 10%(v/v) glycerol, protease inhibitor cocktail C, phosphatase inhibitor cocktail 3 (Sigma, 1:200 dilution), 100 nM okadaic acid (Enzo, ALX-350-003-C100)). Lysates were then centrifuged at 14,000 × g, 15 min, 4 °C, the supernatants were transferred to a fresh tube, and the pellet was discarded. Protein concentrations were measured by Bradford assay using Protein Assay Dye Reagent Concentrate (Bio-Rad Laboratories, 5000006). NuPage LDS sample buffer, supplemented with NuPAGE sample reducing agent (Invitrogen) were added prior to boiling for 10 min at 90 °C. […] Nitrocellulose was then blocked in 5% milk (wt/v) in TBS, 0.1% Tween (v/v) (TBST) for 1 h. Primary and secondary antibodies were diluted in 5% milk, TBST and incubated overnight at 4 °C or for 1 h at room temperature, respectively. […]
Densitometric quantification of western blots was also performed in ImageJ. Intensity was measured in a rectangular region of interest (ROI) around each band. […] An adjacent region was also measured to account for background intensity.

[2] = system: LATS2-pS83 in RPE1 p53-/- cells; experiment: Immunofluorescence, LATS2-pS83 spindle pole signal intensity, RPE1 p53-/-; type: cell-based, Homo sapiens; details: Aurora-A inhibitor 30 min (500 nM)
Method: As noted in the figures, the following drugs were incubated with cells for 30 min at 37 °C: Aurora-B-i ZM447439 2 µM [10 mM], PLK1-I BI2536 1 µM [10 mM] and Aurora-A-i MLN8237 [5 mM] was used at 250 and 500 nM in U251 and RPE1 cells, respectively. Drugs were resuspended in DMSO to the stock concentrations indicated in square brackets. BI2536 (HY-50698), MLN8237 (HY-10971) and ZM447439 (HY-10128) were all purchased from MedChemExpress. For western blotting, a 20-min pre-treatment with proteasome inhibitor (20 µM MG-132, MerckMillipore, 47490 [20 mM]) was required prior to the addition of DMSO control or kinase inhibitors. This prevented mitotic exit as a consequence of checkpoint override following Aurora-A and Aurora-B inhibitor addition.
For siRNA depletion, 1 × 10^5 cells were seeded in six-well plates and transfected as described above for 48 h prior to fixation. For all other experiments, 2.5 × 10^5 cells were seeded in six-well plates and grown for 24 h before fixation. All cells were grown on 12 mm diameter glass coverslips (VWR, 631–1577). […]
For CEP192, LATS2-pS83, PCNT, PLK1 and γ-tubulin intensity, a 20-pixel diameter circle was centred over each centrosome and the intensity measured. […]

COc1cc(Nc2ncc3c(n2)-c2ccc(Cl)cc2C(c2c(F)cccc2OC)=NC3)ccc1C(=O)O [Alisertib]
phosphorylation of TCTP (pS46) [1]: decreased
reduction of pS83 LATS2 levels [2]: 50%
reduction of pS83 LATS2 levels ([2]; listed as Aurora-A inhibition): about 50%
